Tests used:
[1] = tested on: patients with essential tremor; test: T-CALM: PK/PD, Cmin versus TETRAS-PS (Hill equation); format: in vivo, human
Description: Pharmacodynamic variables (Response) evaluated included change from baseline in TETRAS performance subscale, TETRAS activities of daily living, TETRAS total score.

[2] = PN001/Part II: safety and tolerability; format: in vivo, human
Method: No serious adverse events were reported in the subjects who received CX-8998. One placebo-treated subject experienced a serious adverse event (peritonsillar abscess). The subject was admitted to the hospital for treatment with oral and intravenous antibiotics and was discontinued from the study because of this event. […] Each treatment period was separated from the previous one by an approximate 2-week washout, and all treatments were administered in the morning after an overnight fast. Electroencephalograms were recorded before and at selected time points for up to 24 hours after dosing in each treatment period. Cognitive and subjective assessments, including the Karolinska Sleepiness Scale and Bond-Lader visual analog scale, were also performed. 5.3.1.2.2 Pharmacodynamic Data Alpha rhythm is seen posterior brain regions in healthy adults during quiet wakefulness. It originates in the thalamus and is driven by Cav3 channel activity (Schreckenberger, 2004). Agitated, awake individuals may not display an alpha rhythm. […] Reductions in alpha power during the eyes closed position, were generally observed throughout the 24-hour postdose evaluation period for the 18 mg dose and were generally consistent across electrode sites.

Structure (SMILES): CC(C)c1ccc(CC(=O)N[C@H](C)c2ccc(OCC(F)(F)F)cn2)cc1 [CX-8998]
- Emax, change from baseline in TETRAS-PS ([1]; Cmin at steady state): approximately −4.1
- EC50 ([1]; Homo sapiens, TETRAS-PS): ~250 nM
- At least 1 adverse event ([2]; 5 mg): 8 (66.7) n (%)
- Dizziness ([2]; 5 mg): 1 (8.3) n (%)
- Drowsiness ([2]; 5 mg): 3 (25.0) n (%)
- Euphoric mood ([2]; 5 mg): 1 (8.3) n (%)
- Feeling of relaxation ([2]; 5 mg): 1 (8.3%) n (%)
- Floating feeling ([2]; 5 mg): 1 (8.) n (%)
- Gastrointestinal Disorders ([2]; 5 mg): 2 (16.7) n (%)
- Headache ([2]; 5 mg): 1 (8.3) n (%)
- Intermittent headache ([2]; 5 mg): 0 n (%)
- Nausea ([2]; 5 mg): 2 (16.7) n (%)
- Nervous System Disorders ([2]; 5 mg): 4 (33.3) n (%)
- Psychiatric Disorders ([2]; 5 mg): 4 (33.3) n (%)
- Sleep disturbance ([2]; 5 mg): 1 (8.3) n (%)
- Vivid dreams ([2]; 5 mg): 2 (16.7) n (%)
- At least 1 adverse event ([2]; 18 mg): 11 (91.7) n (%)
- Dizziness ([2]; 18 mg): 3 (25.0) n (%)
- Drowsiness ([2]; 18 mg): 3 (25.0) n (%)
- Euphoric mood ([2]; 18 mg): 3 (25.0) n (%)
- Feeling of relaxation ([2]; 18 mg): 3 (25.0) n (%)
- Floating feeling ([2]; 18 mg): 1 (8.3) n (%)
- Gastrointestinal Disorders ([2]; 18 mg): 1 (8.3) n (%)
- Headache ([2]; 18 mg): 3 (25.0) n (%)
- Intermittent headache ([2]; 18 mg): 2 (16.7) n (%)
- Nausea ([2]; 18 mg): 1 (8.3) n (%)
- Nervous System Disorders ([2]; 18 mg): 8 (66.7) n (%)
- Psychiatric Disorders ([2]; 18 mg): 6 (50.0) n (%)
- Sleep disturbance ([2]; 18 mg): 2 (16.7) n (%)
- Vivid dreams ([2]; 18 mg): 2 (16.7) n (%)
- Tolerability ([2]; single doses of 5 and 18 mg): generally well tolerated
